According to patent US20090131519A1 (priority 2005, published 2009):

What was measured:
[1] = test system: Fusarium fungi; test: Field trial, winter wheat "Slade", Ulhówek (Poland) 2004: natural Fusarium ear infection, DON and ZEA content of grains (HPLC/MS), grain yield; format: in vivo; details: for ZEA content of the grains / Infection (ears infected by Fusarium fungi) / Grain yield: dose prohexadione-Ca 50, metconazole 90; for ZEA content of the grains: relative to untreated = 100% (0.073 mg per kg of harvested grains); for Infection (ears infected by Fusarium fungi): relative to untreated = 100% (4.5% of the ears infected), assessed Jul. 22, 2004; for Grain yield: relative to untreated = 100% (8.6 t/ha)
[2] = test system: Fusarium graminearum (strain 4528); details: cited from earlier work
[3] = test system: Fusarium graminearum; details: in vivo; cited from earlier work
[4] = test system: mildew; details: pre-treatment; cited from earlier work
[5] = test system: Fusarium fungi; test: Field trial, winter wheat "Ritmo", Gronau 2004: natural Fusarium ear infection, DON and NIV content of grains (HPLC/MS), grain yield; format: in vivo

With `CC1(C)CCC(Cc2ccc(Cl)cc2)C1(O)Cn1cncn1` (centres unmarked) [metconazole, reference compound] the “ZEA content of the grains” value ([1]; treatment date 10.6.) was 53%, the “Infection (ears infected by Fusarium fungi)” value ([1]; treatment date 10.6.) was 18% and the Grain yield ([1]; treatment date 10.6.) was 108%. For the same compound, the “ZEA content of the grains” value ([1]; treatment date 19.6.) was 33%, the “Infection (ears infected by Fusarium fungi)” value ([1]; treatment date 19.6.) was 18% and the Grain yield ([1]; treatment date 19.6.) was 110%.
For `COc1ccc(C(O)(c2cncnc2)C2CC2)cc1` (centres unmarked) [ancymidole], the “Inhibition of mycelium growth” value [2] is given as “only weakly” and the “Inhibition of the formation of 3-acetyldeoxynivalenol (3-ADON)” value [2] is given as “only weakly”.
In the case of `CC(C)C(O)(c1ccc(OC(F)(F)F)cc1)c1cncnc1` (centres unmarked) [flurprimidole], the “Inhibition of mycelium growth” value [2] is given as “only weakly” and the “Inhibition of the formation of 3-acetyldeoxynivalenol (3-ADON)” value [2] is given as “only weakly”.
For `C[N+](C)(C)CCCl.[Cl-]` [chlormequat chloride, 2-chloroethyltrimethylammonium chloride], the “Effect on the susceptibility of wheat ears to infection with Fusarium graminearum” value [3] is given as “no direct effect”.
For prohexadione-calcium, the “Reduction of infection of wheat with mildew” value [4] is given as “cannot be reduced”, the “ZEA content of the grains” value ([1]; treatment date 10.6.) is given as 23% and the “Infection (ears infected by Fusarium fungi)” value ([1]; treatment date 10.6.) is given as 78%. The Grain yield ([1]; treatment date 10.6.) was 98%, the “ZEA content of the grains” value ([1]; treatment date 19.6.) was 32% and the “Infection (ears infected by Fusarium fungi)” value ([1]; treatment date 19.6.) was 51%. For the same compound, the Grain yield ([1]; treatment date 19.6.) was 105%, the “DON content of the grains (statement in words)” value ([1]; winter wheat Slade, Ulhówek 2004, no DON figures printed) was “reduces the DON and ZEA contents considerably” and the “Content of the grains of NIV” value ([5]; in vivo) was 75%. For the same compound, the “Content of the grains of DON” value ([5]; relative to untreated = 100% (22.4 mg of DON per kg of harvested grains), 50 g/ha, Jun. 7, 2004) was 81%, the Grain yield ([5]; relative to untreated = 100% (2.9 t/ha), 50 g/ha, Jun. 7, 2004) was 109% and the “Infection (ears infected by Fusarium fungi)” value ([5]; relative to untreated = 100% (43.8% of the ears infected), 50 g/ha applied Jun. 7, 2004 at beginning of flowering, assessed Jun. 28, 2004) was 91%.
